# Reference: patent publication US20230218776A1, “ANTI-NTB-A ANTIBODIES AND RELATED COMPOSITIONS AND METHODS” (SEAGEN INC., priority 2015, published 2023)
# Key:
# Assay type in all cases: cell-based
# [1] = system: Raji cell line; assay: Complement-dependent cytotoxicity (CDC), Sytox Green; conditions: 0.02-50 μg/mL, human serum, 2 hours
# Method: (§1) Complement-Dependent Cytotoxicity (CDC): Normal human T cells (All Cells, Alameda, Calif.) or cancer cell lines (ATCC, Manassas, Va.) were labelledlabeled with 5 μM Sytox Green (Life Technologies, Grand Island, N.Y.), then bound with serial a serial dose titrations of anti-human NTB-A h20F3 antibody or PBD dimer ADCies (0.02-50 μg/mL) in RPMI1640 media+1020% human serum (Complement Technology, Tyler, TX or Solomon Park Research Laboratories, Kirkland, Wash. Cells were incubated at 37° C., 5% CO2 for 2 hours, and fluorescence from lysed cells was measured with an Envision plate reader (Perkin Elmer, Waltham, Mass.). Data was expressed as a percentage of maximum cell lysis determined with a positive control of 1% TritonX-100-treated cells (Sigma, ST. Louis, Mo.).
# (§2) Three cell types were used for analysis: normal human T cells, WIL2-S cells, and Raji cells. Expression of relevant receptors on each cell type is found in Table 7 and is indicated as number of receptor per cell.
# [2] = system: WIL2-S cell line; assay: as above; conditions: 0.02-50 μg/mL, human serum, 2 hours
# Method: as §1, §2
# [3] = system: WIL2-S cell line; assay: ADCC, chromium-51 release with NK effector cells; conditions: NK effector to target 10:1, 4 hours
# Method: Antibody-Dependent Cellular Cytotoxicity (ADCC) Activity Assay: ADCC cytotoxic activity was measured by chromium-51 release in which effector natural killer (NK) cells kill (lyse) target cells via binding to the antibody or ADC on the target cells. WIL2-S cells were labeled with chromium-51, bound with antibody (0.1 ng/mL-10 μg/mL), and then incubated with NK cells at an effector to target ratio of 10:1 for 4 hours at 37° C., 5% CO2. Supernatant was removed to a filter plate and chromium-51 counts were measured with a TopCount (Perkin Elmer, Waltham, Mass.). Data was expressed as a percentage of maximum specific cell lysis determined with a positive control of 1% TritonX-100-treated cells (Sigma, St. Louis, Mo.).
# [4] = system: Raji cell line; assay: ADCP with monocyte-derived macrophages; conditions: dilution series starting at 2 μg/mL
# Method: (§3) To assess NTB-A mediated ADCP activity, normal T lymphocytes or tumor cells were labeled with the red fluorescent membrane dye, PKH26, then labeled with antibody or ADC in a 5-point, 10-fold dilution series starting at 2 μg/mL. Cells were then incubated for 30 minutes on ice and washed twice with PBS. Cells were mixed with monocyte-derived macrophages for one hour at 37° C. The cell mixture was then stained with Alexa Fluor 488-conjugated murine anti-CD11b to label macrophages and analyzed by flow cytometry to detect PKH26+CD11b+ double-labeled fluorescent cells. Phagocytic activity was calculated as (percent PKH26+CD11b+)/(percent CD11b+cells) multiplied by one hundred.
# [5] = system: WIL2-S cell line; assay: ADCP with monocyte-derived macrophages; conditions: dilution series starting at 2 μg/mL
# Method: as §3
substance,measurement,setting,value
Rituximab: anti-CD20 antibody control [reference compound],CDC Maximum % Specific Cell Lysis,[1],45 ± 5.7%
same,CDC Maximum % Specific Cell Lysis,[2],66 ± 1.4%
same,ADCC Maximum % Specific Cell Lysis,[3],42 ± 6.0%
same,ADCP Maximum % Phagocytosis,[4],57%
same,ADCP Maximum % Phagocytosis,[5],56%
